In US20230220037A1, “NOVEL USE” (GlaxoSmithKline Intellectual Property (No.3) Limited, priority 0001, published 2023):
“Also recorded” adds a separate entry of the source.

Experiments:
[1] = system: TRPM3; assay type: cell-based, C57BL/6NJ mice and Sprague Dawley rats; details: cultured DRG neurons; agonist 30 min at 37° C.; PS 100 μM; ELISA
[2] = system: TRPM3; assay type: cell-based, C57BL/6NJ mice and Sprague Dawley rats; details: cultured TG neurons; agonist 30 min at 37° C.; ELISA
[3] = system: TRPM3; test: CGRP release assay, wild type and Trpm3 knock out DRG and TG neurons; assay type: cell-based, mouse; details: for CGRP release from Trpm3 deficient sensory neurons: Trpm3 knock out DRG and TG neurons; for CGRP release from wild type sensory neurons: wild type DRG and TG neurons
[4] = system: TRPM3; assay type: cell-based, mouse; details: for TRPM3 dependence of agonist-induced PACAP release: mouse DRG and TG cells, wild type vs Trpm3 knockout
[5] = system: rats; test: Five-day rat dural infusion migraine model, periorbital von Frey testing; assay type: in vivo; details: for Sensitivity to periorbital von Frey stimulation compared to vehicle treated animals: Day 5 (after 4 infusions)
Description: The five-day rat Dural infusion migraine model is based on repeated inflammatory dural stimulation to mimic the repeated activation of dural afferents believed to occur in patients with recurrent migraine headache. In this model, rats are tested in the periorbital region for mechanical allodynia (a pain response to stimuli which are not normally painful) using von Frey fibres, which are small calibrated fibres which deliver a calibrated amount of force.
The surgery, infusion, and testing followed the modification of the method of Oshinsky & Gomoncharconsiri, 2007, supra. Briefly, rats were habituated and trained for 1-2 weeks and then fitted with a stainless-steel cannula (22GA, Plastics One) under isoflurane anaesthesia. […] Special attention was given not to disturb the dura. A custom flange guide cannula (22GA, Plastics One) was inserted into the hole (cut 0.5 mm below pedestal). The cannula was fixed to the bone with small screws and dental cement. A dummy that extended just past the end of the cannula was inserted to prevent scar tissue from forming, and thus clogging the cannula. Animals were allowed 1-2 weeks of recovery before testing and infusions began.
Periorbital thresholds were monitored during the recovery period to ensure the thresholds returned to pre-surgery baselines. […] Extra animals were included to account for any post-surgery animal that needed to be excluded.
After recovering from surgery, animals were infused supra-durally with treatments according to Table 1 for 5 consecutive days. Under isoflurane, the animal's nose was place in the nose cone of the anaesthesia machine. Using a haemostat, the base of the flange cannula was clasped, and the dummy cannula was removed. A custom cannula injector was inserted into the flange cannula. With a Hamilton syringe and infusion pump at a rate of 1.759 μl/min 15 μl of formulations was delivered supra-durally.
Animals were randomly assigned to a treatment group (A-C) using a software generated randomization scheme. From the first day of sensitization, each animal was tested routinely (every 2-3 days) for changes in periorbital sensitivity by a blinded investigator.
Pre-infusion sensory testing occurred on Day 1 of the testing schedule to provide a point of comparison for subsequent testing. Sensory testing occurred according to the testing schedule established in Table 1, and prior to infusion when applicable. Sensory testing utilized von Frey filaments with reproducible calibrated buckling forces varying from 0.4-10 g utilizing the Chaplan up and down method. Allodynia was tested by perpendicularly touching the periorbital region causing slight buckling of the filament for approximately 5 seconds. Based on the response pattern and the force of the final filament, the periorbital threshold (g) was calculated (Chaplan et al., 1994, Quantitative assessment of tactile allodynia in the rat paw. Journal of neuroscience methods, 53(1), 55-63). The supra-dural infusions were above the dura in the right brain hemisphere; therefore, the right periorbital threshold data only was recorded. A positive response was characterized by several behavioural criteria: stroking the face with a forepaw, head withdrawal from the stimulus, and head shaking.

[6] = molecular target: T1, TRPM3 (Mus musculus, UniProt J9SQF3); details: Held et al., PNAS 2015; cited from earlier work
T1 sequence (J9SQF3 whole entry): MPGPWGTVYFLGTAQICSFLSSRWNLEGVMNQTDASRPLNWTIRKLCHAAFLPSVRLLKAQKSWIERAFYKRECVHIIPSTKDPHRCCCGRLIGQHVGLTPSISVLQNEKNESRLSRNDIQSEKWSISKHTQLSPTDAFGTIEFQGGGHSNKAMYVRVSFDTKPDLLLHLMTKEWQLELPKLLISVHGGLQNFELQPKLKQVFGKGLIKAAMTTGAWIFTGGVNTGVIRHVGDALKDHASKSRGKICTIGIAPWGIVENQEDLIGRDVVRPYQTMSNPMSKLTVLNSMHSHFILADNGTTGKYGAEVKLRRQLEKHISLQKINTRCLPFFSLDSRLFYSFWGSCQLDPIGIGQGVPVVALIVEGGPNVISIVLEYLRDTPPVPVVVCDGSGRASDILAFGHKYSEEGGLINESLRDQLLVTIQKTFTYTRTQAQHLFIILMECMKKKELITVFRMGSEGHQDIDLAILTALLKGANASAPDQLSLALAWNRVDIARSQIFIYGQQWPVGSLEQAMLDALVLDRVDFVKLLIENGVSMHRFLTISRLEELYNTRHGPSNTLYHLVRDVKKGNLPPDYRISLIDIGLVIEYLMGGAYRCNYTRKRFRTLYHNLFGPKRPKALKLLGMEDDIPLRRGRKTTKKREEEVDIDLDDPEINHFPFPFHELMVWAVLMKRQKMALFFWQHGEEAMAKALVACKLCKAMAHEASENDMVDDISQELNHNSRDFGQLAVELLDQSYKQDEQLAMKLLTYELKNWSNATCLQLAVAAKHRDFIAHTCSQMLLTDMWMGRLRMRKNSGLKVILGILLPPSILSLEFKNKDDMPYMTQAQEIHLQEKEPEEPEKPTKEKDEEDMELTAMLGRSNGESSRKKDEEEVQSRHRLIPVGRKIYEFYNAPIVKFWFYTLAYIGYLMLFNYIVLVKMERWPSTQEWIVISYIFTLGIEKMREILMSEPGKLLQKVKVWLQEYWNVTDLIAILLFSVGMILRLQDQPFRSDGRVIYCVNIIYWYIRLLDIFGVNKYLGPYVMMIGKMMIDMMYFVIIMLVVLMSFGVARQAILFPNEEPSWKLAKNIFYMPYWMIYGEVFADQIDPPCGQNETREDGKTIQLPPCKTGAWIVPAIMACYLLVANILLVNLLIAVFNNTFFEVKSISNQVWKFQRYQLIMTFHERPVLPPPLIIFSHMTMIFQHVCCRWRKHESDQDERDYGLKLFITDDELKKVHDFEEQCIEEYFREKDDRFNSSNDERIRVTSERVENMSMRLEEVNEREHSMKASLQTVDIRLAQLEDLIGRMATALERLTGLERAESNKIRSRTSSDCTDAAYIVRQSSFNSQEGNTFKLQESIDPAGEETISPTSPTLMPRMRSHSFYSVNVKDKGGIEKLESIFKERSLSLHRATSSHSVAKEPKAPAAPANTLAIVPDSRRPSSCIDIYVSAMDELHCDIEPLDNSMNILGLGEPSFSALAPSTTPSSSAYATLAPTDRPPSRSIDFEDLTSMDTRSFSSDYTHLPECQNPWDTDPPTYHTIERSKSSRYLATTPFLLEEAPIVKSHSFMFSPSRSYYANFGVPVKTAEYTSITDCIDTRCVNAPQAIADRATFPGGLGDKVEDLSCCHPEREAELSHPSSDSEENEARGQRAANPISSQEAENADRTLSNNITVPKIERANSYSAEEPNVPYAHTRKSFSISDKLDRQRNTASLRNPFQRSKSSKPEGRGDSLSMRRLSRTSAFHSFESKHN

[7] = molecular target: T2, TRPM3 (SEQ ID NO: 2) (Homo sapiens, UniProt Q9HCF6); test: Calcium mobilisation assay, HEK MSR II cells expressing canonical TRPM3; assay type: cell-based; details: for Relative agonist potency of the isomers of CIM0216 in calcium mobilisation assay: R-isomer vs S-isomer
T2 construct: expressed in transfected cells; host or cells: HEK MSR II cells transduced with BacMam virus (codon optimised cDNA)
T2 sequence (Q9HCF6 1-1707 isoform Q9HCF6-2): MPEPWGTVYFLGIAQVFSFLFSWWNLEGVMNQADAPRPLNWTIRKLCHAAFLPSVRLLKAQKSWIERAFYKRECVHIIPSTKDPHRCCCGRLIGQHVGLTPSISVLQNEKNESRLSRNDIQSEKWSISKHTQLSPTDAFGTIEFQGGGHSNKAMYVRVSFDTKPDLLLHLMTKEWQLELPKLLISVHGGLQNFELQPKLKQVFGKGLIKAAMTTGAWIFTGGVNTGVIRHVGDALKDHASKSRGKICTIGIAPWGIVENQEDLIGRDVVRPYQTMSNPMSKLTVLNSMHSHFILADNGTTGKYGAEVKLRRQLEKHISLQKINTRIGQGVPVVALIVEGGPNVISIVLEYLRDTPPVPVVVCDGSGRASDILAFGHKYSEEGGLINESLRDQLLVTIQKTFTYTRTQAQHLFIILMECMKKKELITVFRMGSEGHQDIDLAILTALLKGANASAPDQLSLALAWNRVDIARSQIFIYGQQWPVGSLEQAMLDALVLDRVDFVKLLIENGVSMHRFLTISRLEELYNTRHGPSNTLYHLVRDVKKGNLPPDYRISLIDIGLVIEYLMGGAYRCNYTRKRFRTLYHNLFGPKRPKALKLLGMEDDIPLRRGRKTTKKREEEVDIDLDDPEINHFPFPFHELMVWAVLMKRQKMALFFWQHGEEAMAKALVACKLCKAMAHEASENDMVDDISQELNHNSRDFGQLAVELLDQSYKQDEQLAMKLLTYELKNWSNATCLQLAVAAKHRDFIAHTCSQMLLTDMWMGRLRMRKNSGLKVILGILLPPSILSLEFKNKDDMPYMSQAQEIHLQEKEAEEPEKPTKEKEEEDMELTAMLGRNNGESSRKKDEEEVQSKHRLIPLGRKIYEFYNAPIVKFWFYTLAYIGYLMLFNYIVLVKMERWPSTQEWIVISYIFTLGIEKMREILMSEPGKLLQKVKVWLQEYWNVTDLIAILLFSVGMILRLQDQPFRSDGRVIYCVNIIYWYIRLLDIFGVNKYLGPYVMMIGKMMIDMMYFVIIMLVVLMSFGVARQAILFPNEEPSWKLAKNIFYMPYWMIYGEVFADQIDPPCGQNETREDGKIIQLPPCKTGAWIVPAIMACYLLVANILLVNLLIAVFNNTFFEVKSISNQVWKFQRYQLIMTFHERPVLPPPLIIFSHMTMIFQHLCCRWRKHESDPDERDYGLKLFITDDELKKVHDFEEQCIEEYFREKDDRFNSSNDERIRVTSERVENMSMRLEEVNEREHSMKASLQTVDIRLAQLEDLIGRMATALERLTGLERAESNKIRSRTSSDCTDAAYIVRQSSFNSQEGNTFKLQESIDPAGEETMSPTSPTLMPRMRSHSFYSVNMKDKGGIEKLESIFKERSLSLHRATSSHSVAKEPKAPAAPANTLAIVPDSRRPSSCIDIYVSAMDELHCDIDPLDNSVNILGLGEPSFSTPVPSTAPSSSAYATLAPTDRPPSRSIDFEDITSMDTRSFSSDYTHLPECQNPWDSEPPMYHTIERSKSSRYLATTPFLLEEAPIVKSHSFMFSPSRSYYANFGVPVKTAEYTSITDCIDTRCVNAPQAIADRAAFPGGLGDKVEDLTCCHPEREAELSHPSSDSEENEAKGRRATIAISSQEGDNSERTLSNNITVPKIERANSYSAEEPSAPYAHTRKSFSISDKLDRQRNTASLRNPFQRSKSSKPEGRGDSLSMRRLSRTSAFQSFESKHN
Description: (§1) Example 3—Calcium mobilisation assay and cell lines Calcium mobilisation assays were performed in HEK MSR II cells loaded with the calcium indicator dye Fluo4. The cells were induced to express TRPM3 (SEQ ID NO: 2) or mutants thereof by transducing them with Bacmam virus containing the codon optimised cDNA sequence for the required TRPM3 variant at a multiplicity of infection of approximately 40 for 48 hours prior to the experiment. Cells were incubated in the presence of FLUO4-AM and TRPM3 inhibitors for approx 1.5 hrs prior to transfer to a FLIPR where the cells were treated with TRPM3 agonists to induce calcium mobilisation. Fluo4 fluorescence was monitored for 10 min. As a positive control the cells were then treated with the calcium ionophore ionomycin and the fluorescence monitored for a further 3 min.

[8] = system: PACAP-38; details: treatment with sumatriptan; cited from earlier work
[9] = system: rats; details: inflammatory soup infusion; historical data; cited from earlier work
[10] = molecular target: T3, variant of SEQID NO: 2 having the R1670Q mutation (Homo sapiens, UniProt Q9HCF6, R1695Q); test: Calcium mobilisation assay, HEK MSR II cells expressing TRPM3 R1670Q variant; assay type: cell-based
T3 construct: expressed in transfected cells; host or cells: HEK MSR II cells transduced with BacMam virus (codon optimised cDNA)
T3 sequence (Q9HCF6 1-1707 isoform Q9HCF6-2 R1670Q): as the sequence (Q9HCF6 1-1707 isoform Q9HCF6-2) above, with R1670Q counted along it
Description: as §1

[11] = molecular target: T1, TRPM3; set-up: trigeminal neurons from mice; host or cells: trigeminal neurons from mice; details: Vriens et al., Neuron 2011; cited from earlier work
[12] = supra-dural infusion 5 days, Pregnenolone sulphate 5 mM, CIM0216 215 μM
[13] = HEK MSR II cells, Bacmam transduction

Row | Compound | CGRP release from DRG neurons induced by TRPM3 agonist [1] | CGRP release from TG neurons induced by TRPM3 agonist [2] | CGRP release from Trpm3 deficient sensory neurons [3] | CGRP release from wild type sensory neurons [3] | TRPM3 dependence of agonist-induced PACAP release [4] | Sensitivity to periorbital von Frey stimulation compared to vehicle treated animals [5] | Mechanical allodynia in the periorbital region (von Frey thresholds) [5, 12] | further results
1 | Cc1cc(NC(=O)C(c2ccccc2)N2CCCc3ccccc32)no1 (racemic) [CIM0216, 2-(3,4-dihydroquinolin-1(2H)-yl)-N-(5-methylisoxazol-3-yl)-2-phenylacetamide] | induced a concentration dependent release of CGRP; also recorded: induce release of CGRP | induced a concentration dependent release of CGRP; also recorded: stimulate release of CGRP | absent; also recorded: lacking | dose-dependent release of CGRP | dependent on TRPM3 | effective in increasing sensitivity to periorbital von Frey (VF) stimulation as early as Day 5 | induce mechanical allodynia in the periorbital region of rats; also recorded: trigger mechanical allodynia in the periorbital region | Overt adverse effects / body weight [5, 12]: do not cause overt adverse effects; CGRP release from isolated mouse hind paw skin [6]: induced to release CGRP
2 | Cc1cc(NC(=O)[C@@H](C)N2CCCc3ccccc32)no1 (single isomer, unassigned) [R-isomer] | – | – | – | – | – | – | – | Relative agonist potency of the isomers of CIM0216 in calcium mobilisation assay [7]: more potent agonist compared to the S-isomer; Relative agonist potency of the isomers of CIM0216 in calcium mobilisation assay ([7]; listed as (R)-2-(3,4-dihydroquinolin-1(2H)-yl)-N-(5-methylisoxazol-3-yl)propenamide): more potent agonist than the (S)-isomer
3 | COc1cc(CNC(=O)CCCC/C=C/C(C)C)ccc1O [capsaicin] | – | – | could be induced by capsaicin | – | – | – | – | CGRP release from Trpm3 deficient sensory neurons ([3]; listed as Capsaicin): evoked CGRP release; PACAP release from Trpm3 knockout cells ([4]; Trpm3 knockout mouse DRG and TG cells): still responsive
4 | CNS(=O)(=O)Cc1ccc2[nH]cc(CCN(C)C)c2c1 [sumatriptan] | – | – | – | – | – | – | – | PACAP-38 levels [8]: decreased PACAP-38 levels; Mechanical nociception sensitivity [9]: alleviated
5 | pregnenolone sulfate | increased release of CGRP; also recorded: induce release of CGRP | increased release of CGRP; also recorded: demonstrated to be concentration dependent; also recorded: stimulate release of CGRP | absent | dose-dependent release of CGRP | dependent on TRPM3 | effective in increasing sensitivity to periorbital von Frey (VF) stimulation as early as Day 5 | induce mechanical allodynia in the periorbital region of rats; also recorded: trigger mechanical allodynia in the periorbital region | CGRP release from Trpm3 deficient sensory neurons ([3]; listed as PS): lacking; Increase in FLUO4 fluorescence, canonical TRPM3 [7, 13]: induced concentration-dependent increases in FLUO4 fluorescence; Increase in FLUO4 fluorescence, R1670Q variant [10, 13]: induced concentration-dependent increases in FLUO4 fluorescence; Potency at the R1670Q variant relative to canonical TRPM3 ([10]; greater at R1670Q, equal multiplicities of infection): 1.8 fold; Maximal fold change in fluorescence at R1670Q variant relative to canonical ([10]; larger at R1670Q, equal multiplicities of infection): 26%; Inward current in trigeminal neurons [11]: induced an inward current
